Values belong to the compound of their own block, whether it stands above or below them.
Experiments:
[1] = target: GTPase HRas (Homo sapiens, UniProt P01112, G12V); test: Inhibition GST-tagged recombinant HRAS G12V mutant (1 to 166 amino acids) (unknown origin) expressed in Escherichia coli C41(DE3) by SPR assay
[2] = target: Beta-2 adrenergic receptor (Homo sapiens, UniProt P07550); test: Inhibition of beta2 adrenoreceptor (unknown origin)
[3] = target: CREB-binding protein (Homo sapiens, UniProt Q92793); test: Binding affinity to Poly-Histidine-tagged CBP (unknown origin) expressed in Escherichia coli BL21(DE3) by competition binding assay
CREB-binding protein, sequence (Q92793 whole entry): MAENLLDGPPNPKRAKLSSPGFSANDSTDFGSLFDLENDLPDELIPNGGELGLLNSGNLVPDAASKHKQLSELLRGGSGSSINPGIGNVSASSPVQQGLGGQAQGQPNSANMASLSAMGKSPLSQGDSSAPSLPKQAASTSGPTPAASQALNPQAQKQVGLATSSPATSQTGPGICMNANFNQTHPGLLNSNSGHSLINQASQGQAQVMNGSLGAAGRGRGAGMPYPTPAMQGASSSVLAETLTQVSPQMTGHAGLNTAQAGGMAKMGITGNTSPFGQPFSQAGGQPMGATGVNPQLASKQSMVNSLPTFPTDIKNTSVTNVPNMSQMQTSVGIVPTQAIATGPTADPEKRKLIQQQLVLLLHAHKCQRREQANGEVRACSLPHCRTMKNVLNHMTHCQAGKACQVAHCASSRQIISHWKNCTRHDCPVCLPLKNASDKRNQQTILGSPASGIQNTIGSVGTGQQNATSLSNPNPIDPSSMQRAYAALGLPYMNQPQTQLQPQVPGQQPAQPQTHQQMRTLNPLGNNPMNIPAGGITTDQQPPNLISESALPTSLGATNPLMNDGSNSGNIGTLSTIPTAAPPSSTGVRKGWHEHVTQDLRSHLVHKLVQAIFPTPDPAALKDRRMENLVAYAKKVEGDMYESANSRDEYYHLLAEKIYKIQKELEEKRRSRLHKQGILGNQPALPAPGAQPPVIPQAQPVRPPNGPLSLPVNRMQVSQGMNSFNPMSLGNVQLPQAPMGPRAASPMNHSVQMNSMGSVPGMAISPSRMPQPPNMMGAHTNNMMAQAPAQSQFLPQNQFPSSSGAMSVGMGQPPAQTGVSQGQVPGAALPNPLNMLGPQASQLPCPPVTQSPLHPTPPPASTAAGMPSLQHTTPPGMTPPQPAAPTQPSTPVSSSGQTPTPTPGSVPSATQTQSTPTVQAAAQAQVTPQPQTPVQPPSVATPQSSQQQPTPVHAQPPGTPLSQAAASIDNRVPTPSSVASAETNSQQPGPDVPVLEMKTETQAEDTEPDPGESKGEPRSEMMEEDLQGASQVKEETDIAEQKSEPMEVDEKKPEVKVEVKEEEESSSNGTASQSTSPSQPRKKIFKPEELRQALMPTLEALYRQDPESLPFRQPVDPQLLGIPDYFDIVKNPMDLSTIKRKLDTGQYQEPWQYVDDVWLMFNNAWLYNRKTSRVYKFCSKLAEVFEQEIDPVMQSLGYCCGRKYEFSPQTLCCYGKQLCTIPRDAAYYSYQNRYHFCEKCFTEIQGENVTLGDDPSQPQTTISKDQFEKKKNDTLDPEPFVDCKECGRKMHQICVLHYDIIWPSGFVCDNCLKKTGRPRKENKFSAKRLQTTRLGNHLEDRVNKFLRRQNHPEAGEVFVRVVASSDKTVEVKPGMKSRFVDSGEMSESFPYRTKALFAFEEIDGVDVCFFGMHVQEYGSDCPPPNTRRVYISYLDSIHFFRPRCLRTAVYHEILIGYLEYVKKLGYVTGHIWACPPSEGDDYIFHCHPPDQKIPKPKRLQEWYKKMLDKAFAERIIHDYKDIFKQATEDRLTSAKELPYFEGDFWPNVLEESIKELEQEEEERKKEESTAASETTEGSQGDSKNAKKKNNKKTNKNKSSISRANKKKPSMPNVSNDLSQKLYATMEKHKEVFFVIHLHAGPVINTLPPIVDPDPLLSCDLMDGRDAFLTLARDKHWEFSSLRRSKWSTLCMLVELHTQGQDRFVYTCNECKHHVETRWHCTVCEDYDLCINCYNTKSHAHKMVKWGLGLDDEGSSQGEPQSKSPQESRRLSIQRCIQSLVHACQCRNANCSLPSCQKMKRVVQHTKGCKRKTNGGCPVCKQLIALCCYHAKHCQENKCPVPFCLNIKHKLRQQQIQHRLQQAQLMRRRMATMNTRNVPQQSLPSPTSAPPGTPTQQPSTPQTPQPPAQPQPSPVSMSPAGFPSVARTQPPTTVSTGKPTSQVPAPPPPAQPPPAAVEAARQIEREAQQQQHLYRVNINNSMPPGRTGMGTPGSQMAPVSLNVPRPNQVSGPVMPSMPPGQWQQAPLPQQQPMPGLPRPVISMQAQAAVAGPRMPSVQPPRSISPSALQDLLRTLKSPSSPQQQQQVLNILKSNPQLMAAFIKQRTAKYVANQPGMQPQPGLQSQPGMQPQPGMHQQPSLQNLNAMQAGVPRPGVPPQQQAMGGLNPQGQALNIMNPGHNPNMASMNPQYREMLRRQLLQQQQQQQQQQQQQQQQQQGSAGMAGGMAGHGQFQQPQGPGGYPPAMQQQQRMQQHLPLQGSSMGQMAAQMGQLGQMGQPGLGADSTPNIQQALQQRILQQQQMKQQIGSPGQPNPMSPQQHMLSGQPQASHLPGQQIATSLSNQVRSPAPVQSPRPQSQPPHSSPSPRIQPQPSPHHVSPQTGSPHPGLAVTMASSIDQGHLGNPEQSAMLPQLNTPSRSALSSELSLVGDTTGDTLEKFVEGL

[4] = target: T1, Glycylpeptide N-tetradecanoyltransferase 1 (Homo sapiens, UniProt P30419); test: Inhibition of human N-myristoyltransferase assessed as reduction in CoASH production by fluorogenic detection based assay
T1 sequence (P30419 whole entry): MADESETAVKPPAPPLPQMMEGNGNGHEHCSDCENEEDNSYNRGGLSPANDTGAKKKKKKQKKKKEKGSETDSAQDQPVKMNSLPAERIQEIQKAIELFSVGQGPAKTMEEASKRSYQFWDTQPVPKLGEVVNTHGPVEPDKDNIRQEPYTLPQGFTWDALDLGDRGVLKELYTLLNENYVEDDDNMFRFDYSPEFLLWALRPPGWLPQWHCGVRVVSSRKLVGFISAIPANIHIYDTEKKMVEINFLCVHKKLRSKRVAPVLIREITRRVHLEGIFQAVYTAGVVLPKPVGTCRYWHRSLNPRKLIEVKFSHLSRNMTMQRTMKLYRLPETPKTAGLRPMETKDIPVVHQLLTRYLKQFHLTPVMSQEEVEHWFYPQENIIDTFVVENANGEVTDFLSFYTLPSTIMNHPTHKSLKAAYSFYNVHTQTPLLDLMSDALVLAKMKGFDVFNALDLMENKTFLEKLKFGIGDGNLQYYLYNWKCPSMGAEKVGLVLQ

[5] = target: cAMP and cAMP-inhibited cGMP 3',5'-cyclic phosphodiesterase 10A (Homo sapiens, UniProt Q9Y233); test: Inhibition of human PDE10A2 using cAMP substrate by HTRF assay
cAMP and cAMP-inhibited cGMP 3',5'-cyclic phosphodiesterase 10A, sequence (Q9Y233 whole entry): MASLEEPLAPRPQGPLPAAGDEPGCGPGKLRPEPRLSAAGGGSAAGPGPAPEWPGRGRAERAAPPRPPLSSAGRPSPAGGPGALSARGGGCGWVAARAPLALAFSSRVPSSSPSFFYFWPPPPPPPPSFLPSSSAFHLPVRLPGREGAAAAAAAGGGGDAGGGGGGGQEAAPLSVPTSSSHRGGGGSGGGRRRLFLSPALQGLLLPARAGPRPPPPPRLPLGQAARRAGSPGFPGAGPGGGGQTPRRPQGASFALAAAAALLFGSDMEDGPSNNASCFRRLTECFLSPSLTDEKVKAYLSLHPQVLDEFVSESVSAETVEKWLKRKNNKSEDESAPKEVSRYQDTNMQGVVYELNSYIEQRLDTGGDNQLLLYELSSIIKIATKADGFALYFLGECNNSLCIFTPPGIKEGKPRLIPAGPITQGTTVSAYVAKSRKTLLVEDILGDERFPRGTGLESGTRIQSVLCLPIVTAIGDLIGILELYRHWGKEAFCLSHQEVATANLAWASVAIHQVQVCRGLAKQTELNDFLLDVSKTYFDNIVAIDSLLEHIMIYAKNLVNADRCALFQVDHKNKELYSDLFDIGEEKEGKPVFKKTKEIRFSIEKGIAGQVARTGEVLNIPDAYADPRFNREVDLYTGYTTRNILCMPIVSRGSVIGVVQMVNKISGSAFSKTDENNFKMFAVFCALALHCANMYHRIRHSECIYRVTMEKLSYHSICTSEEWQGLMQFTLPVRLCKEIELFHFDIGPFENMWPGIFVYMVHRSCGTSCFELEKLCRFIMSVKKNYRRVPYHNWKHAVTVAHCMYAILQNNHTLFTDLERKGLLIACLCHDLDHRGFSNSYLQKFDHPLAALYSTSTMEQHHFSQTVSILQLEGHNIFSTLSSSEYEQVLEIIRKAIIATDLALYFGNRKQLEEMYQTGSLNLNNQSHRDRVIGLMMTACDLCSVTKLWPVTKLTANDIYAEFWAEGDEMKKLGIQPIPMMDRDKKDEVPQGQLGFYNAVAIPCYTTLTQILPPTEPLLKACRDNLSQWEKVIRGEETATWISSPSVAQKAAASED

GTPase HRas, sequence (P01112 whole entry G12V, the tested form may be a part): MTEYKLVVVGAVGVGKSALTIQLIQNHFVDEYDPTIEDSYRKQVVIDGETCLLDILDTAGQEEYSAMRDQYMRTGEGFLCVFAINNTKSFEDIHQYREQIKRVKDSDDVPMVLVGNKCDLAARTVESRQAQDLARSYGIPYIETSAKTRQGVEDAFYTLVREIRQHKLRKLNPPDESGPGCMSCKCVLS
Beta-2 adrenergic receptor, sequence (P07550 whole entry): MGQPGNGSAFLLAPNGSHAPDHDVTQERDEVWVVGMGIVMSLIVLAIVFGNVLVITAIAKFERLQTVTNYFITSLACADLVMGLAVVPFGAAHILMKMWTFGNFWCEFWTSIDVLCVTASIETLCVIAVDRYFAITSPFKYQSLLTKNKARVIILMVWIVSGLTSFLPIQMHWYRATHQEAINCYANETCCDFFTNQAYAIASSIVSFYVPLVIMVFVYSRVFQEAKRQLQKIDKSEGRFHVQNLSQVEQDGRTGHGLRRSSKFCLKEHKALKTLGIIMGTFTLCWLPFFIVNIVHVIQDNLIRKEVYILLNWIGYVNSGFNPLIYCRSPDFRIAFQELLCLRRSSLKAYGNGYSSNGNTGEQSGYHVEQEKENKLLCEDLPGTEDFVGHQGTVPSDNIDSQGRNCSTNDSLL

Kd [1]: > 370 µM
Structure (SMILES): O=C(Nc1ccc2ccccc2n1)c1ccco1

IC50 [2]: < 0.001 µM
Structure (SMILES): Clc1ccc(CNCc2ccc(-c3ncccn3)cc2)cc1Cl

Kd [3]: 53 µM
Structure (SMILES): CCOc1ccc(C(C)=O)cc1N

Structure (SMILES): Cc1nn(C)c(C)c1CCOc1c(-c2ccc3c(c2)c(CN(C)C)nn3C)ccc(F)c1F
IC50 [4]: < 0.001 µM

IC50 [5]: < 10 µM
Structure (SMILES): Cc1cc2nccc(-c3ccc(Cl)cc3)n2n1

Kd [1]: 0.051 µM
Structure (SMILES): COc1nc(-c2cccc3c2OCCO3)ccc1Nc1ccc(CN(C)C)cc1

IC50 [2]: 10 µM
Structure (SMILES): NCc1ccc(-c2ncccn2)cc1

— ChEMBL document CHEMBL4376879, “Fragment-to-Lead Medicinal Chemistry Publications in 2018” (J Med Chem, 2020)
